Test results from paper PMC6262455 (Cells, 2018).
Where two headings read alike, the source gives them in different places.

Tests used:
Assay type in all cases: cell-based
[1] = system: doxorubicin-resistant human colon adenocarcinoma subline (LoVo/DX); experiment: cells; settings: for IC50: LoVo/DX, 72 h, read-out: IC50 LoVo/DX; for SI LoVo/DX: SI = IC50 BALB/3T3 / IC50 LoVo/DX; for RI (resistance index): RI = IC50 LoVo/DX / IC50 LoVo
Excerpt: (§1) The BALB/3T3 cell line was purchased from the American Type Culture Collection (ATCC, Manassas, VA, USA), A549 and MCF-7 cell lines—from European Collection of Authenticated Cell Cultures (Salisbury, UK). The LoVo cell line was purchased from the American Type Culture Collection (ATCC, Manassas, VA, USA), and LoVo/DX by courtesy of Prof. E. Borowski (Technical University of Gdańsk, Gdańsk, Poland). All the cell lines are maintained in the Institute of Immunology and Experimental Therapy (IIET), Wroclaw, Poland. The human lung adenocarcinoma cell line was cultured in a mixture of OptiMEM and RPMI 1640 (1:1) medium (IIET, Wroclaw, Poland), supplemented with 5% foetal bovine serum (GE Healthcare, Logan UT, USA) and 2 mM L-glutamine (Sigma-Aldrich, Merck KGaA, Saint Louis, MO, USA). Human breast adenocarcinoma cell line was cultured in mixture of Eagle’s medium (IIET, Wroclaw, Poland), supplemented with 10% fetal bovine serum, 2 mM L-glutamine, 8 μg/mL insulin, and 1% amino-acids (Sigma-Aldrich, Merck KGaA, Saint Louis, MO, USA). […] Murine embryonic fibroblast cells were cultured in Dulbecco medium (Life Technologies Limited, Paisley, UK), supplemented with 10% foetal bovine serum (GE Healthcare, Logan, UT, USA) and 2 mM glutamine (Sigma-Aldrich, Merck KGaA, Saint Louis, MO, USA). All culture media contained antibiotics: 100 U/mL penicillin and 100 μg/mL streptomycin (Polfa–Tarchomin, Warsaw, Poland). All cell lines were cultured during the entire experiment in a humid atmosphere at 37 °C and 5% CO2. […] The procedure was repeated every year or in the case of less frequently used lines: after thawing.
(§2) Twenty-four h before adding the tested compounds, all cell lines were seeded in 96-well plates (Sarstedt, Nümbrecht, Germany) in appropriate media with 10^4 cells per well. All cell lines were exposed to each tested agent at four different concentrations in the range 100–0.01 μg/mL for 72 h. […] Additionally, all cell lines were exposed to DMSO (solvent used for tested compounds) (POCh, Gliwice, Poland) at concentrations corresponding to these present in tested agents’ dilutions. After 72 h sulforhodamine B assay (SRB) was performed.
(§3) After 72 h of incubation with the tested compounds, cells were fixed in situ by gently adding 50 μL per well of cold 50% trichloroacetic acid TCA (POCh, Gliwice, Poland) and were incubated at 4 °C for one hour. Following, wells were washed four times with water and air dried. Next, 50 μL of 0.1% solution of sulforhodamine B (Sigma-Aldrich, Merck KGaA, Saint Louis, MO, USA) in 1% acetic acid (POCh, Gliwice, Poland) were added to each well and plates were incubated at room temperature for 0.5 h. After incubation time, unbound dye was removed by washing plates four times with 1% acetic acid whereas stain bound to cells was solubilized with 10 mM Tris base (Sigma-Aldrich, Merck KGaA, Saint Louis, MO, USA). Absorbance of each solution was read at Synergy H4 Hybrid Multi-Mode Microplate Reader (BioTek Instruments, Inc., Winooski, VT, USA) at the 540 nm wavelength.
(§4) IC50 values were calculated in Cheburator 0.4, Dmitry Nevozhay software (version 1.2.0 software by Dmitry Nevozhay, 2004–2014, http://www.cheburator.nevozhay.com, freely available) for each experiment. Compounds at each concentration were tested in triplicates in single experiment and each experiment was repeated at least three times independently. The Resistance Index (RI) was defined as the ratio of IC50 for a given compound calculated for resistant cell line to that measured for its parental drug sensitive cell line (Table 1).

[2] = system: human breast adenocarcinoma (MCF-7); experiment: cells; settings: for IC50: read-out: IC50 MCF-7; for SI MCF-7: SI = IC50 BALB/3T3 / IC50 MCF-7
Excerpt: as §1, §2, §3, §4

[3] = system: human colon adenocarcinoma cell line (LoVo); experiment: cells; settings: for IC50: LoVo, 72 h, read-out: IC50 LoVo; for SI LoVo: SI = IC50 BALB/3T3 / IC50 LoVo
Excerpt: as §1, §2, §3, §4

[4] = system: human lung adenocarcinoma (A549); experiment: cells; settings: for IC50: A549, 72 h, read-out: IC50 A549; for SI A549: SI = IC50 BALB/3T3 / IC50 A549
Excerpt: as §1, §2, §3, §4

[5] = system: normal murine embryonic fibroblast cell line (BALB/3T3); experiment: Antiproliferative SRB assay, 72 h, normal cells BALB/3T3; settings: BALB/3T3, 72 h, mean ± SD
Excerpt: as §1, §2, §3, §4

For CCCCOC(=O)N[C@H]1CCc2c(Br)c(OC)c(OC)c(OC)c2-c2ccc(SC)c(=O)cc21 [Compound 11], the IC50 ([1]; Homo sapiens) was 91 ± 9 nM, the “SI LoVo/DX” value [1] was 1.60 and the IC50 ([2]; Homo sapiens, MCF7, 72 h) was 125 ± 14 nM. For the same molecule, the “SI MCF-7” value [2] was 1.17, the IC50 ([3]; Homo sapiens) was 62 ± 13 nM and the “SI LoVo” value [3] was 2.35. For the same molecule, the IC50 ([4]; Homo sapiens) was 95 ± 5 nM, the “SI A549” value [4] was 1.54 and the IC50 ([5]; Mus musculus) was 146 ± 14 nM.
With COc1c(Br)c2c(c(OC)c1OC)-c1ccc(SC)c(=O)cc1[C@@H](NC(=O)OCCOCCO)CC2 [Compound 12] the IC50 ([1]; Homo sapiens) was 4240 ± 1330 nM, the “RI (resistance index)” value [1] was 15.09 and the “SI LoVo/DX” value [1] was 0.03. The IC50 ([2]; Homo sapiens, MCF7, 72 h) was 125 ± 15 nM, the “SI MCF-7” value [2] was 1.08 and the IC50 ([3]; Homo sapiens) was 281 ± 185 nM. The “SI LoVo” value [3] was 0.48, the IC50 ([4]; Homo sapiens) was 93 ± 14 nM and the IC50 ([5]; Mus musculus) was 135 ± 15 nM.
COc1c(Br)c2c(c(OC)c1OC)-c1ccc(SC)c(=O)cc1[C@@H](NC(C)=O)CC2 [Compound 3, 4-bromothiocolchicine] was tested, and the IC50 ([1]; Homo sapiens) was 135 ± 12 nM, the “RI (resistance index)” value [1] was 9.64 and the “SI LoVo/DX” value [1] was 0.76. The IC50 ([2]; Homo sapiens, MCF7, 72 h) was 15 ± 2 nM, the “SI MCF-7” value [2] was 6.87 and the IC50 ([3]; Homo sapiens) was 14 ± 4 nM. The “SI LoVo” value [3] was 7.36, the IC50 ([4]; Homo sapiens) was 10 ± 0.1 nM and the “SI A549” value [4] was 10.3. The IC50 ([5]; Mus musculus) was 103 ± 89 nM.
Molecule COC(=O)N[C@H]1CCc2c(Br)c(OC)c(OC)c(OC)c2-c2ccc(SC)c(=O)cc21 [Compound 6] has an IC50 ([1]; Homo sapiens) of 50 ± 10 nM, an IC50 ([3]; Homo sapiens) of 7 ± 2 nM and an IC50 ([4]; Homo sapiens) of 10 ± 0.1 nM. For the same molecule, the IC50 ([5]; Mus musculus) was 66 ± 31 nM.
With COc1c(Br)c2c(c(OC)c1OC)-c1ccc(SC)c(=O)cc1[C@@H](N)CC2 [Compound 4, 4-bromo-N-deacetylthiocolchicine] the IC50 ([1]; Homo sapiens) was 700 ± 88 nM, the “RI (resistance index)” value [1] was 5.60 and the “SI LoVo/DX” value [1] was 1.80. For the same molecule, the IC50 ([2]; Homo sapiens, MCF7, 72 h) was 178 ± 20 nM, the “SI MCF-7” value [2] was 7.08 and the IC50 ([3]; Homo sapiens) was 125 ± 44 nM. The “SI LoVo” value [3] was 10.08, the IC50 ([4]; Homo sapiens) was 115 ± 7 nM and the IC50 ([5]; Mus musculus) was 1260 ± 796 nM.
In the case of COc1c(Br)c2c(c(OC)c1OC)-c1ccc(SC)c(=O)cc1[C@@H](NC(=O)OCCO)CC2 [Compound 5], the IC50 ([1]; Homo sapiens) is reported as 1010 ± 20 nM, the “RI (resistance index)” value [1] is reported as 13.65 and the “SI LoVo/DX” value [1] is reported as 0.10. For the same molecule, the IC50 ([2]; Homo sapiens, MCF7, 72 h) was 57 ± 11 nM, the “SI MCF-7” value [2] was 1.82 and the IC50 ([3]; Homo sapiens) was 74 ± 19 nM. For the same molecule, the “SI LoVo” value [3] was 1.41, the IC50 ([4]; Homo sapiens) was 74 ± 9 nM and the “SI A549” value [4] was 1.41. For the same molecule, the IC50 ([5]; Mus musculus) was 104 ± 43 nM.
With COc1c(Br)c2c(c(OC)c1OC)-c1ccc(SC)c(=O)cc1[C@@H](NC(=O)OCC(F)(F)F)CC2 [Compound 8] the IC50 ([1]; Homo sapiens) was 74 ± 7 nM, the “RI (resistance index)” value [1] was 4.11 and the “SI LoVo/DX” value [1] was 1.86. The IC50 ([2]; Homo sapiens, MCF7, 72 h) was 55 ± 26 nM, the “SI MCF-7” value [2] was 2.51 and the IC50 ([3]; Homo sapiens) was 18 ± 10 nM. It also gave an IC50 ([4]; Homo sapiens) of 30 ± 21 nM and an IC50 ([5]; Mus musculus) of 138 ± 10 nM.
CCCOC(=O)N[C@H]1CCc2c(Br)c(OC)c(OC)c(OC)c2-c2ccc(SC)c(=O)cc21 [Compound 9] was tested, and the IC50 ([1]; Homo sapiens) was 72 ± 11 nM, the “RI (resistance index)” value [1] was 6.55 and the “SI LoVo/DX” value [1] was 1.61. The IC50 ([2]; Homo sapiens, MCF7, 72 h) was 27 ± 7 nM, the “SI MCF-7” value [2] was 4.30 and the IC50 ([3]; Homo sapiens) was 11 ± 0.1 nM. For the same molecule, the IC50 ([4]; Homo sapiens) was 12 ± 4 nM and the IC50 ([5]; Mus musculus) was 116 ± 9 nM.
With N.N.[Cl][Pt][Cl] [Cisplatin, reference compound] the IC50 ([1]; SRB, mean ± SD) was 5700 ± 630 nM, the “RI (resistance index)” value [1] was 1.3 and the “SI LoVo/DX” value [1] was 0.68. For the same molecule, the IC50 ([2]; MCF-7, 72 h, SRB, mean ± SD) was 10700 ± 753 nM, the “SI MCF-7” value [2] was 0.36 and the IC50 ([3]; SRB, mean ± SD) was 4370 ± 730 nM. The “SI LoVo” value [3] was 0.89, the IC50 ([4]; SRB, mean ± SD) was 6370 ± 1410 nM and the “SI A549” value [4] was 0.61. It also gave an IC50 [5] of 3900 ± 1500 nM.
For CCOC(=O)N[C@H]1CCc2c(Br)c(OC)c(OC)c(OC)c2-c2ccc(SC)c(=O)cc21 [Compound 7], the IC50 ([1]; Homo sapiens) was 71 ± 10 nM, the “RI (resistance index)” value [1] was 6.45 and the “SI LoVo/DX” value [1] was 1.44. The IC50 ([2]; Homo sapiens, MCF7, 72 h) was 18 ± 2 nM, the “SI MCF-7” value [2] was 5.67 and the IC50 ([3]; Homo sapiens) was 11 ± 4 nM. It also gave an IC50 ([4]; Homo sapiens) of 12 ± 4 nM and an IC50 ([5]; Mus musculus) of 102 ± 63 nM.
In the case of COc1c(Br)c2c(c(OC)c1OC)-c1ccc(OC)c(=O)cc1[C@@H](NC(C)=O)CC2 [Compound 2, 4-bromocolchicine], the IC50 ([1]; Homo sapiens) is reported as 1550 ± 170 nM, the “RI (resistance index)” value [1] is reported as 18.45 and the “SI LoVo/DX” value [1] is reported as 0.09. For the same molecule, the IC50 ([2]; Homo sapiens, MCF7, 72 h) was 27 ± 8 nM, the “SI MCF-7” value [2] was 5.26 and the IC50 ([3]; Homo sapiens) was 84 ± 21 nM. For the same molecule, the “SI LoVo” value [3] was 1.69, the IC50 ([4]; Homo sapiens) was 105 ± 8 nM and the “SI A549” value [4] was 1.35. For the same molecule, the IC50 ([5]; Mus musculus) was 142 ± 73 nM.
Molecule COc1cccc2c1C(=O)c1c(O)c3c(c(O)c1C2=O)C[C@@](O)(C(=O)CO)C[C@@H]3O[C@H]1C[C@H](N)[C@H](O)[C@H](C)O1 [Doxorubicin, reference compound] has an IC50 ([1]; Homo sapiens, SRB, mean ± SD) of 4750 ± 990 nM, an IC50 ([4]; Homo sapiens, SRB, mean ± SD) of 258 ± 44 nM and an IC50 ([5]; Mus musculus) of 166 ± 74 nM.
With COc1c(Br)c2c(c(OC)c1OC)-c1ccc(SC)c(=O)cc1[C@@H](NC(=O)OC(C)C)CC2 [Compound 10] the IC50 ([1]; Homo sapiens) was 89 ± 26 nM, the “SI LoVo/DX” value [1] was 1.94 and the IC50 ([2]; Homo sapiens, MCF7, 72 h) was 132 ± 17 nM. The “SI MCF-7” value [2] was 1.31, the IC50 ([3]; Homo sapiens) was 54 ± 17 nM and the “SI LoVo” value [3] was 3.20. The IC50 ([4]; Homo sapiens) was 89 ± 20 nM, the “SI A549” value [4] was 1.94 and the IC50 ([5]; Mus musculus) was 173 ± 108 nM.
